The source of these data is ChEMBL document CHEMBL4834409 (J Med Chem, 2021).

The Ki is a dissociation constant, usually derived from enzyme kinetics or from competition with a known ligand. A low value points to higher affinity. As a reminder, the bioavailability is the share of a dose that reaches the circulation, judged against a reference dose that is usually intravenous. High values mean much systemic uptake, low ones little systemic uptake. The term EC50 denotes the concentration giving half of the maximal effect. What is called inhibition is the share of the control response that was lost under treatment. A low value points to little suppression.

The source made the active and inactive calls. No cut-off for these calls is given here.

Data set [1] has as its target T1, Melatonin receptor type 1A (Homo sapiens, UniProt P48039). Put plainly: Displacement of 2-[125l]-lodomelatonin from human MT1 expressed in CHO cell membrane incubated for 150 mins by radioligand binding assay. In kind it is cell membranes.
Data set [2] concerns the target T2, Melatonin receptor type 1B (Homo sapiens, UniProt P49286).
T2 sequence (P49286 whole entry): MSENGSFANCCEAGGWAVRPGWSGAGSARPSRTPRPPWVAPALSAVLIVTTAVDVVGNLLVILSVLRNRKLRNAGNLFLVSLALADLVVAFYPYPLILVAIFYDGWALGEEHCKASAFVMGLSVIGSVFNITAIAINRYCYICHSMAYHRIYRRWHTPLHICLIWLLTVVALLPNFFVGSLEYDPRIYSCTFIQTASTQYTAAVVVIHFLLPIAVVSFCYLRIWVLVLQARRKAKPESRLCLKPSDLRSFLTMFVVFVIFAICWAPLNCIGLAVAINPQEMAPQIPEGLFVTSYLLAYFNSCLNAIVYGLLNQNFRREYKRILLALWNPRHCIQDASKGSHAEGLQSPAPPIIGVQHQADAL
The experiment in a line: Displacement of 2-[125l]-lodomelatonin from human MT2 expressed in CHO cell membrane incubated for 150 mins by radioligand binding assay. The class given is cell membranes.

A short description of data set [3]: Clearance in human hepatic microsomes at 1 umol/L incubated for 20 mins in presence of NADPH generating system by HPLC-UV analysis. The class given is ADME, Microsome. To be noted: liver microsomes, dose 1 µmol/L, read-out: CLH. (In general: Microsomes from liver hold many membrane-bound enzymes, among them those of drug oxidation.)
A short description of data set [4]: Clearance in rat hepatic microsomes at 1 umol/L incubated for 20 mins in presence of NADPH generating system by HPLC-UV analysis. The class given is ADME, Microsome. To be noted: liver microsomes, dose 1 µmol/L, read-out: CLH.
Data set [5] is described as follows: Oral bioavailability in Sprague-Dawley rat at 1 mg/kg administered as casette dosing by LC/MS/MS analysis. In kind it is ADME, organism-based. To be noted: in vivo.
Data set [6] is described as follows: Drug concentration in Sprague-Dawley rat brain at 0.1 mg/kg, po after 60 mins by LC/MS/MS analysis. The class given is ADME, organism-based. The conditions noted are these: read-out: Ct.
A short description of data set [7]: Drug concentration in Sprague-Dawley rat plasma at 0.1 mg/kg, po after 60 mins by LC/MS/MS analysis. In kind it is ADME, organism-based.
Data set [8] is described as follows: Ratio of drug concentration in brain to plasma in Sprague-Dawley rat at 0.1 mg/kg, po after 60 mins by LC/MS/MS analysis. In kind it is ADME, organism-based. To be noted: read-out: BPR.
For data set [9], the target named is T1, Melatonin receptor type 1A. Put plainly: Agonist activity at human MT1 expressed in CHO-K1 cells assessed as inhibition of forskolin-induced cAMP accumulation incubated for 30 mins by AlphaScreen assay. The class given is functional, cell-based. For orientation: Changes in cAMP serve as a functional read-out for many G protein-coupled receptors.
The target of data set [10] is T2, Melatonin receptor type 1B. The experiment in a line: Agonist activity at human MT2 expressed in CHO-K1 cells assessed as inhibition of forskolin-induced cAMP accumulation incubated for 30 mins by AlphaScreen assay. In kind it is functional, cell-based.
For a further data set, the system named is Felis catus. The experiment in a line: Hypnotic activity in cats assessed as increase in total sleep time at 10 mg/kg, po after 8 hrs by EEG analysis. In kind it is functional, organism-based.
The target in data set [11] is T1, Melatonin receptor type 1A. Put plainly: Binding affinity to human MT1 expressed in CHO cells. In kind it is cell-based.
In data set [12] the target is T2, Melatonin receptor type 1B. Put plainly: Binding affinity to human MT2 expressed in CHO cells. The class given is cell-based.
The nature of data set [13]: Oral bioavailability in Sprague-Dawley rat at 1 mg/kg by LC/MS/MS analysis. The class given is ADME, organism-based. The conditions noted are these: in vivo.
Data set [14] can be described thus: Drug concentration in Sprague-Dawley rat brain at 1 mg/kg, po after 60 mins by LC/MS/MS analysis. In kind it is ADME, organism-based. To be noted: read-out: Ct.
Data set [15] is described as follows: Drug concentration in Sprague-Dawley rat plasma at 1 mg/kg, po after 60 mins by LC/MS/MS analysis. In kind it is ADME, organism-based.
Data set [16] can be described thus: Ratio of drug concentration in brain to plasma in Sprague-Dawley rat at 1 mg/kg, po after 60 mins by LC/MS/MS analysis. The class given is ADME, organism-based. The conditions noted are these: read-out: BPR.
Data set [17] concerns the target T1, Melatonin receptor type 1A. The experiment in a line: Displacement of 2-[125l]-lodomelatonin from human MT1 expressed in CHO cell membrane at 100 nM incubated for 150 mins by radioligand binding assay relative to control. The class given is cell membranes.
The target in data set [18] is T3, Melatonin receptor type 1B (Homo sapiens) (UniProt P49286).
T3 sequence (whole entry): T2 sequence (P49286 whole entry)
The experiment in a line: Displacement of 2-[125l]-lodomelatonin from human MT2 expressed in CHO cell membrane at 100 nM incubated for 150 mins by radioligand binding assay relative to control. In kind it is cell membranes.

T1 sequence (P48039 whole entry): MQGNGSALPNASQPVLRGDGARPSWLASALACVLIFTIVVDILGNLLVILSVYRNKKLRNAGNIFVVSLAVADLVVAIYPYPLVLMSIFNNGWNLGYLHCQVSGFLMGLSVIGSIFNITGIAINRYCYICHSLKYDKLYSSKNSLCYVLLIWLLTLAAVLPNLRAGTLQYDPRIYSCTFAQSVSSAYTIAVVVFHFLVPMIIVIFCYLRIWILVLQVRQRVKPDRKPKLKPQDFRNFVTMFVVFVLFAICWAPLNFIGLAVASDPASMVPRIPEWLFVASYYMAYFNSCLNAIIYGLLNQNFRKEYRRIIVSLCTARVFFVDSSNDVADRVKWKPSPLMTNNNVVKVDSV

As to `CCC(=O)NCCC1CCc2ccn3nc(C)cc3c21` (centres undefined), the values for the Ki in data set [1] and in [2] were 0.17 nM and 0.95 nM, respectively. Moreover, the microsomal CLint at 1 µM in [3] amounted to 20 µL/min/mg; in [4] it was 84 µL/min/mg.
For `CC(=O)NCCC1CCc2ccc3ncoc3c21` (centres undefined), the Ki in data set [1] was determined as 0.45 nM; in data set [2], 0.073 nM.
Consider `CCC(=O)NCCC1CCc2ccc3nc(C)oc3c21` (centres undefined), for which the figures for the inhibition constant Ki in [1] and in [2] were 0.067 nM and 0.088 nM, respectively. Also, the microsomal CLint at 1 µM in data set [3] worked out at 29 µL/min/mg; in [4] it was 96 µL/min/mg. The molecule also registered a bioavailability in data set [5] of 6.8%.
Regarding `CC(=O)NCCC1CCc2ccc3nc(C)oc3c21` (racemic), the Ki in [1] was 0.067 nM; in [2], 0.13 nM. For the same molecule, the microsomal CLint at 1 µM in data set [4] is 34 µL/min/mg. In data set [5], the bioavailability came to 18.5%.
In the case of `CCC(=O)NCCC1CCc2ccc3nc(C)sc3c21` (centres undefined), the inhibitory constant (Ki) came out at 0.027 nM in [1] and 0.058 nM in data set [2]. Also, the microsomal CLint at 1 µM is 41 µL/min/mg in [3] and 379 µL/min/mg in [4]. The molecule also returned a bioavailability in data set [5] of 3.2%.
As to `CC(=O)NCC[C@@H]1CCc2ccc3nc(C)oc3c21`, the inhibition constant (Ki) in [1] turned out to be 0.031 nM; in [2], 0.07 nM. Further, the values for the concentration at 1 h in data set [6] and in data set [7] were 1.4 ng/g and 2.9 ng/mL, respectively. Moreover, the Kp at 1 h in data set [8] stood at 0.48. In addition, the figures for the concentration giving a half-maximal response (EC50) in data set [9] and in data set [10] were 0.015 nM and 0.51 nM, respectively. In the data set with Felis catus, the result was Active.
`CCC(=O)NCC[C@@H]1CCc2ccc3c(c21)CCO3` [RAMELTEON]: the Ki amounted to 0.014 nM in data set [11] and 0.112 nM in data set [12]. The microsomal CLint at 1 µM in [3] came to 51 µL/min/mg; in data set [4], 126 µL/min/mg. In addition, the bioavailability in data set [13] was determined as 8.5%. Further, the concentration at 1 h in data set [14] amounted to 17 ng/g; in data set [15], 15 ng/mL. For the same molecule, in data set [16], the Kp at 1 h was found to be 1.1.
As to `CCC(=O)NCCC1CCc2ccc3nn(C)cc3c21` (centres undefined), the figures for the Ki in [1] and in data set [2] were 0.3 nM and 0.35 nM, respectively. Moreover, the microsomal CLint at 1 µM was determined as 23 µL/min/mg in data set [3] and 79 µL/min/mg in [4]. For the same molecule, the bioavailability in data set [5] is 13.7%.
With `CC(=O)NCCC1CCc2ccc3nc(Cc4ccccc4)oc3c21` (centres undefined), the Ki in [1] is 4.4 nM; in [2], 0.12 nM.
The corresponding values for `COc1nc2ccc3c(c2o1)C(CCNC(C)=O)CC3` (centres undefined) are 0.45 nM and 0.15 nM.
On to `CC(=O)NCCC1CCc2ccc3nc(-c4ccccc4)oc3c21` (centres undefined), for which the Ki in data set [1] was found to be 1.3 nM; in [2], 0.23 nM.
For `CCc1nc2ccc3c(c2o1)C(CCNC(C)=O)CC3` (centres undefined) the same measures were 0.22 nM and 0.16 nM.
Regarding `CC(=O)NCCC1CCc2ccc3nc(CO)oc3c21` (centres undefined), the values for the Ki in [1] and in data set [2] were 1.2 nM and 1.1 nM, respectively.
For `CC(=O)NCC[C@H]1CCc2ccc3nc(C)oc3c21`, the Ki amounted to 23 nM in data set [1] and 6.1 nM in [2].
The corresponding values for `CC(=O)NCCC1CCc2ccc3nc(C4CC4)oc3c21` (centres undefined) are 0.39 nM and 0.15 nM.
As for `CC(=O)NCCC1CCc2ccc3nn(C)cc3c21` (centres undefined), the results for the Ki in data set [1] and in data set [2] were 0.35 nM and 0.75 nM, respectively. The microsomal CLint at 1 µM in [3] came to 5 µL/min/mg; in [4] it was 44 µL/min/mg. The molecule also registered a bioavailability in data set [5] of 20.9%.
Take `CCOC(=O)c1c(C)nn2ccc3c(c12)C(CCNC(C)=O)CC3` (centres undefined): the inhibition in data set [17] and in data set [18] was < 50% each time.
Regarding `CC(=O)NCCC1CCc2ccn3nc(C)cc3c21` (centres undefined), the inhibition constant Ki in data set [1] worked out at 0.2 nM; in data set [2] it was 1.4 nM. In addition, the microsomal CLint at 1 µM in data set [3] worked out at 14 µL/min/mg; in data set [4] it was 42 µL/min/mg. The bioavailability in [5] amounted to 14.3%.
For `CC(=O)NCCC1CCc2ccn3nc(C)c(C)c3c21` (centres undefined), the affinity in data set [1], expressed as Ki, was 9.3 nM. Besides, in [18], the inhibition is < 50%.
Take `CC(=O)NCCC1CCc2ccc3nc(C)sc3c21` (centres undefined): the figures for the Ki in data set [1] and in [2] were 0.037 nM and 0.086 nM, respectively. For the same molecule, the values for the microsomal CLint at 1 µM in [3] and in data set [4] were 45 µL/min/mg and 188 µL/min/mg, respectively. Further, in data set [5], the bioavailability is 4.8%.
